Activity calls are given as the source filed them. No cut-off for these calls is given here.
Key:
[1] = molecular target: T1, 5-hydroxytryptamine receptor 2A (Homo sapiens, UniProt P28223); test: Inhibition of 5-HT2AR (unknown origin ) assessed as inhibition constant
[2] = molecular target: T1, 5-hydroxytryptamine receptor 2A; test: Inhibition of [125I](+/-)DOI binding to 5-HT2AR (unknown origin ) expressed in HEK293 cells at 10 uM by scintillation counter analysis; assay type: cell-based
[3] = molecular target: T1, 5-hydroxytryptamine receptor 2A; test: Inhibition of [125I](+/-)DOI binding to 5-HT2AR (unknown origin ) expressed in HEK293 cells assessed as inhibition constant by scintillation counter analysis; assay type: cell-based
[4] = molecular target: 5-hydroxytryptamine receptor 2B (Homo sapiens, UniProt P41595); test: Inhibition of [125I](+/-)DOI binding to 5-HT2BR (unknown origin ) expressed in CHO cells assessed as inhibition constant by scintillation counter analysis; assay type: cell-based
5-hydroxytryptamine receptor 2B, sequence (P41595 whole entry): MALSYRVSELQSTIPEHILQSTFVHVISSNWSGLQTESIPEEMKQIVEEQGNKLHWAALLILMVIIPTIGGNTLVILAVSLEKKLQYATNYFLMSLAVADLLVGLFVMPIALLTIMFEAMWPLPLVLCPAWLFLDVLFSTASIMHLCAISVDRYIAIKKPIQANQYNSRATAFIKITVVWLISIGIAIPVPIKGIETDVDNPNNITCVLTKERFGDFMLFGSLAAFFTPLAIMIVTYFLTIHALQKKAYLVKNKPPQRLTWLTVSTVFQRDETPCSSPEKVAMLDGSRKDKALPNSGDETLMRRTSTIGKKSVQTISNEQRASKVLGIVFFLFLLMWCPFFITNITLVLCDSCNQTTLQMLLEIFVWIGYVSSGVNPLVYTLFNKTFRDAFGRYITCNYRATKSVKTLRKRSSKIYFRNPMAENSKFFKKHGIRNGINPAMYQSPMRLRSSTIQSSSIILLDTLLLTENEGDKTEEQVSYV

T1 sequence (P28223 whole entry): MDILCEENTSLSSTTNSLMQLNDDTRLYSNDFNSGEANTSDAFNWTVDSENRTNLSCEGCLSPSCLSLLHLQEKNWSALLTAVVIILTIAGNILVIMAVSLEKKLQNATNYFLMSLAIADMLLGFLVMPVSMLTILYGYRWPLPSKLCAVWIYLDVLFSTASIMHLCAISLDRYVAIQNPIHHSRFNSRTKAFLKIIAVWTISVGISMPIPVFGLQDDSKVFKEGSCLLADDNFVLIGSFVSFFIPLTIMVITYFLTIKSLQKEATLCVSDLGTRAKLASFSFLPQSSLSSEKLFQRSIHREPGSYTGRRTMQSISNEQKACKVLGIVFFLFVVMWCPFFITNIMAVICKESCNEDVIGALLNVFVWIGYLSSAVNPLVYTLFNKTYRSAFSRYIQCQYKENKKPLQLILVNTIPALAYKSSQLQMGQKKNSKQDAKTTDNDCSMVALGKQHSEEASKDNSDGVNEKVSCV

Row | Structure (SMILES) | Ki [1] [nM] | inhibition [2] | Ki [3] [nM] | Ki [4] [nM]
1 | CN(C)CCc1c[nH]c2cccc(OP(=O)(O)O)c12 [PSILOCYBIN] | > 10000 |  |  | 
2 | CCOP(=O)(OCC)c1cccc2[nH]cc(CCN(C)C)c12 |  | Active |  | 
3 | CCOP(=O)(OCC)c1ccc2[nH]cc(CCN(C)C)c2c1 |  | Active | 620 | 140

Source: ChEMBL document CHEMBL5344480 (RSC Med Chem, 2024)
